# Results: patent US20260217691A1, “FOXM1 INHIBITORS AND THEIR USE IN TREATING CANCERS” (THE BOARD OF TRUSTEES OF THE UNIVERSITY OF ILLINOIS, priority 2022, published 2026)
# Tests used:
# FOXM1 = target: T1, FOXM1 (Homo sapiens, UniProt Q08050); assay: FOXM1 protein levels by immunoblotting in leukemia/AML cell lines; type: cell-based; set-up: Total protein samples obtain from treated cells were analyzed for FOXM1 protein levels via immunoblotting; endogenous in cells; host or cells: KG-1, HL-60, K562, THP-1 leukemia cell lines
# T1 sequence (Q08050 1-763): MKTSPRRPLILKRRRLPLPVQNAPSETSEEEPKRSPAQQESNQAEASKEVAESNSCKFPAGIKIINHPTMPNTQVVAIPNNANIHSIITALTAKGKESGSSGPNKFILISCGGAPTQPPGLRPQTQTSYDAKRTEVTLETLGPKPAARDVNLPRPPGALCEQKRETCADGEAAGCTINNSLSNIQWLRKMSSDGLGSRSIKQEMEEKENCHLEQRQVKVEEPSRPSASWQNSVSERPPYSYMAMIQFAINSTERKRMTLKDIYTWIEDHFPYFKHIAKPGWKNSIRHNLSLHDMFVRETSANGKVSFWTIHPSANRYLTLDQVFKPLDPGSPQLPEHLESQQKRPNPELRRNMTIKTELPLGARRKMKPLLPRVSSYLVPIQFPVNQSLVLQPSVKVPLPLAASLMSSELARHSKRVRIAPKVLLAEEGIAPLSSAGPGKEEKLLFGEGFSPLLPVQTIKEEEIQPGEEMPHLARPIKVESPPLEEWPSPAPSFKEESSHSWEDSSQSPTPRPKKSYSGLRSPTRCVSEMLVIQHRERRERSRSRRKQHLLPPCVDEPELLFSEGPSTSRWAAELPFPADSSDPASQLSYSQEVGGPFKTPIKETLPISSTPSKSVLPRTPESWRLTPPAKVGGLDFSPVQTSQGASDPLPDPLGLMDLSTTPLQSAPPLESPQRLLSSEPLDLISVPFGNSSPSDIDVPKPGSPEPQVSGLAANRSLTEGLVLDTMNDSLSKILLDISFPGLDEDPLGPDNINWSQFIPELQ
# Description: [a] Leukemia cells, KG-1, HL-60 and K562 were treated with increasing concentrations of STL427944 for 24 hrs. […] [b] THP1 and KG-1 cells were treated with indicated concentrations of venetoclax and STL427944 alone or in combination for 24 hrs. [c] KG-1 and K562 cells were treated with indicated concentrations of cytarabine and STL427944 alone or in combination for 24 hrs.
# FIG. 8. STL427944 treatment of human leukemia cell lines suppress FOXM1 protein expression. (a) STL427944 treatment of human leukemia cell lines inhibit FOXM1 protein expression and sensitize cells to venetoclax treatment. […] (b) Stable shRNA-mediated FOXM1 knockdown prominently sensitizes KG-1 cells to cytotoxic effect of venetoclax. (c, d) combined treatment with STL427944 and venetoclax suppresses FOXM1 in KG-1 and THP-1 cells and synergistically promotes cytotoxic effects similarly to FOXM1 knockdown. Total protein was isolated from cells immediately after the treatment and analyzed via immunoblotting with FOXM1 antibodies). Apoptosis induction was estimated based on caspase-3 cleavage.
# FIGS. 9A and 9B: Novel FOXM1 inhibitor STL001 sensitizes Leukemia cells to chemotherapy agents. [a] Structural formula of novel FOXM1 inhibitor STL001. [b] Leukemia cells, KG-1, HL-60, and K562 were treated with increasing concentrations of STL001 for 24 hrs. […] [c] KG-1 cells were treated with indicated concentrations of Laptomycin B, Chloroquine, and STL001 for 24 hrs. […] [d] KG-1, HL-60, and K562 cells were treated with indicated concentrations of venetoclax and STL001 alone or in combination for 24 hrs. [e] KG-1, HL-60, and K562 cells were treated with indicated concentrations of cytarabine and STL alone or in combination for 24 hrs.
# FIGS. 13A-13H STL001 is a novel FOXM1 inhibitor that sensitizes leukemia cells to standard cytotoxic and bcl2 inhibitor therapies. FIG. 13A AML cell line KG-1 treated with precursor compound STL427944. FIG. 3B AML cell lines KG-1, HL-60, and K562 were treated with increasing concentrations of STL001 for 24 h. Total protein samples obtained from treated cells were analyzed for FOXM1 protein levels using immunoblotting; β-actin was used as the internal loading control. FIG. 13C KG-1, HL-60, and K562 cells were treated with indicated concentrations of venetoclax and STL001 alone or in combination for 24 h. FIG. 13D KG-1, HL-60, and K562 cells were treated with indicated concentrations of cytarabine and STL001 alone or in combination for 24 h. […] FIG. 13E KG-1 cells were treated with indicated concentrations of Leptomycin B, Chloroquine, and STL001 for 24 h. Total protein samples obtained from treated cells were analyzed for FOXM1 protein levels via immunoblotting; β-actin was used as an internal loading control. FIG. 13F KG-1 cell lines with shRNA knockdown of FOXM1 were treated with venetoclax and STL001 and compared to parental cells. FIG. 13G Real-time PCR-based expression profiling for canonical FOXM1 target genes was performed on primary AML mononuclear cells (n=5) treated ex vivo with STL001 5 μM for 24 h. Mean and standard error of the delta Ct for DMSO or treatment group are plotted for each gene. P-value is estimated by two-tailed paired t-test. Asterisks denote P<0.05. FIG. 13H Treatment of peripheral blood mononuclear cells with STL001 for 24 h followed by immunohistochemistry for FOXM1. Slides were scanned on an Aperio AT2 brightfield scanner and images were analyzed using HALO 2.0 software. Hematoxylin counterstain was used to segment nuclei within the ROIs and to establish an accurate cell count. Percent cells with nuclear FOXM1 expression compared between DMSO and STL001 treated cells. P-value is based on one-tailed paired t-test.
# [1] = test system: canonical FOXM1 target genes; assay: Real-time PCR of canonical FOXM1 target genes in primary AML mononuclear cells treated ex vivo; type: cell-based, human; conditions: primary AML samples (n=5), 5 μM, 24 h
compound,measurement,setting,value
O=C(Oc1cccc(-c2ccn(-c3nc(Nc4ccccc4)nc(N4CCOCC4)n3)n2)c1)c1ccco1 [STL001],concentration suppressing FOXM1,FOXM1; AML cell lines,0.5 µM
same,FOXM1 localization,FOXM1; AML cells,localizes FOXM1 to the cytoplasm
same,lowest concentration with dose-dependent inhibition of FOXM1 protein expression,"FOXM1; KG-1, HL-60, K562, 24 h",500 nM
same,improvement in efficiency to suppress FOXM1 / increased potency as FOXM1 inhibitor versus STL427944,"FOXM1; estimated, relative to STL427944",up to 50 fold
same,FOXM1 protein levels,"FOXM1; leukemia cell lines, increasing concentrations, 24 h",dose-dependent inhibition of FOXM1 protein expression
same,expression of FOXM1 transcriptional targets AURKB and CDC25B,[1],significantly suppressed expression
same,expression of PLK1 and FOXM1,[1],downregulation
